The values that follow come from patent US12129246B1, “Hydroquinazoline derivatives for the treatment of a disease or disorder” (Novartis AG, priority 2023, dated 2024).

One test addresses monkey NPR1 (Macaca fascicularis, UniProt A0A7N9DBT9). Description: Cellular cGMP production assay, monkey NPR1 expressing CHO-K1 cells (CisBio HTRF). Type of test: cell-based. To be noted: for Monkey NPR1 Amax (% of ANP): maximum cGMP production as percentage of the maximum cGMP produced with ANP. In outline:
(§1)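 12-pt 3-fold dose-response, top 30 μM; buffer PBS + 0.1% BSA + 1 mM IBMX (PDE inhibitor); 30 min, 37 °C. Lyse, add cGMP-d2 + anti-cGMP-cryptate, 1 h RT. Ex 317 / em 665 nm; Delta F converted to cGMP via calibrator standard curve.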
(Time-resolved FRET reads energy transfer from a long-lived donor to a nearby acceptor.)

A further test deals with T1, human NPR1 (Homo sapiens, UniProt P16066).
T1 construct: host or cells: CHO-K1
T1 sequence (P16066 33-1061): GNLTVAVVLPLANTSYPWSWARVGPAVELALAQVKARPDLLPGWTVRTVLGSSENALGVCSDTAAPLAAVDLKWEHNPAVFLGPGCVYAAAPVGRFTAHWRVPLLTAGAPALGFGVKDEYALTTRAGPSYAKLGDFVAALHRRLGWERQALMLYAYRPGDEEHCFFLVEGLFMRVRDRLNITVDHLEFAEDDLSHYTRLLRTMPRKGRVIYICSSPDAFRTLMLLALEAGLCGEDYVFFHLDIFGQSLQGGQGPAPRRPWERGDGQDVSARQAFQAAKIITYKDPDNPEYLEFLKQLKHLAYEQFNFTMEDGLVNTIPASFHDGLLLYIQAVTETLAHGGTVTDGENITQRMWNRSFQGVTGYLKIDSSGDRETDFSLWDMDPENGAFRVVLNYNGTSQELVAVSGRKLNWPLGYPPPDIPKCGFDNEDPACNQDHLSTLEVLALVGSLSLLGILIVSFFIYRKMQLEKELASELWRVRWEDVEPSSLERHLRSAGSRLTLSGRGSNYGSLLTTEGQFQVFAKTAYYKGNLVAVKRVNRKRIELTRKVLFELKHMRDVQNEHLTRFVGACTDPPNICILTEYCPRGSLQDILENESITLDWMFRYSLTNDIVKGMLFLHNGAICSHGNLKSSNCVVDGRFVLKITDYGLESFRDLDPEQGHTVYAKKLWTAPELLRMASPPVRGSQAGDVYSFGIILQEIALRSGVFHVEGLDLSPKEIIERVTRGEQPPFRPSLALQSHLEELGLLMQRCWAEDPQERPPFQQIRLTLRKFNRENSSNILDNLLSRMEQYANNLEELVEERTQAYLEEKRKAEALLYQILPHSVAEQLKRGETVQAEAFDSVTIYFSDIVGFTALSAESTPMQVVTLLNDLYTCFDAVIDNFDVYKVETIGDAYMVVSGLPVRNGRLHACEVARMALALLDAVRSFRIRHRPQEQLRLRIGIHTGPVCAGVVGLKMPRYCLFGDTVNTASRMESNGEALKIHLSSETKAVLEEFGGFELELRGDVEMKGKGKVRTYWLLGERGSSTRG
The test can be described thus: Cellular cGMP production assay, human NPR1 expressing CHO-K1 cells (CisBio HTRF). The settings on record: for AC50: cGMP production, 30 min at 37° C., 12-point dose-response from 30 μM; for Human NPR1 Amax (% of ANP): maximum cGMP production as percentage of the maximum cGMP produced with ANP. Type of test: cell-based. In outline:
as §1

The mark [1] stands for this setting: cGMP production, monkey NPR1 CHO-K1 cells, 30 min at 37° C., 12-point dose-response from 30 μM, read-out: Monkey NPR1 AC50.

Read-outs that look alike come from different tables or passages of the source.

Sequence of monkey NPR1 (A0A7N9DBT9 entry or part of it): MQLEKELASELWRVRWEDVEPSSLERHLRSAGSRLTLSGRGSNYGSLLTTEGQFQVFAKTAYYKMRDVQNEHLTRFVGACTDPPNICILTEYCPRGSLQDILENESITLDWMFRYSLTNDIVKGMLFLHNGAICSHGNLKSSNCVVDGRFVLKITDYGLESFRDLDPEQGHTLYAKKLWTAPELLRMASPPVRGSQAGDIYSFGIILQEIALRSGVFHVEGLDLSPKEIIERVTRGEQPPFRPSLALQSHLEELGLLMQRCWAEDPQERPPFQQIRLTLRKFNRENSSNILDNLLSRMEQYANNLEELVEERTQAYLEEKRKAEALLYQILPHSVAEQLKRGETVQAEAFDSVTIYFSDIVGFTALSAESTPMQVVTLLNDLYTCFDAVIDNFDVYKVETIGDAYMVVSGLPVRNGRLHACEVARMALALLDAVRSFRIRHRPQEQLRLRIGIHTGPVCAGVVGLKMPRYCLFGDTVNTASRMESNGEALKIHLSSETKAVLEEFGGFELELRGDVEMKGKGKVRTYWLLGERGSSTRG

One may read the AC50 as the concentration giving half of the maximal activity seen. `CC[C@H]([C@H]1CC[C@H](C(=O)O)CC1)N(C)c1nc2c(c(N[C@@H](CN3CCC[C@H](OC)C3)c3cnn(C)c3)n1)C[C@H](c1ccccc1)CC2` [Compound 134, (1R,4r)-4-((R)-1-(((R)-4-(((R)-2-((S)-3-methoxypiperidin-1-yl)-1-(1-methyl-1H-pyrazol-4-yl)ethyl)amino)-6-phenyl-5,6,7,8-tetrahydroquinazolin-2-yl)(methyl)amino)propyl)cyclohexane-1-carboxylic acid]: the AC50 on monkey NPR1 (setting [1]) worked out at 684 nM. In addition, the “Monkey NPR1 Amax (% of ANP)” value on monkey NPR1 (monkey NPR1 CHO-K1 cells) is 96.371 % of ANP. On human NPR1, the AC50 worked out at 792 nM and the “Human NPR1 Amax (% of ANP)” value is 101.936 % of ANP.

On to `CN(c1nc2c(c(N[C@@H](CN3C4CCCC3CCC4)c3cnn(C)c3)n1)C[C@H](c1ccccc1)CC2)[C@H](C1CC1)[C@H]1CC[C@H](C(=O)O)CC1` [Compound 133, (1R,4r)-4-((R)-(((R)-4-(((R)-2-((1S,5S)-9-azabicyclo[3.3.1]nonan-9-yl)-1-(1-methyl-1H-pyrazol-4-yl)ethyl)amino)-6-phenyl-5,6,7,8-tetrahydroquinazolin-2-yl)(methyl)amino)(cyclopropyl)methyl)cyclohexane-1-carboxylic acid], for which the AC50 on monkey NPR1 stood at 647 nM. Besides, the “Monkey NPR1 Amax (% of ANP)” value at monkey NPR1 (monkey NPR1 CHO-K1 cells) is reported as 99.809 % of ANP. At human NPR1, the AC50 worked out at 765 nM and the “Human NPR1 Amax (% of ANP)” value is reported as 95.978 % of ANP.

As for `CC[C@@H](Nc1nc2c(c(N[C@@H](CN3CC4CCC3C4)c3ccc(F)cc3)n1)C[C@H](c1ccccc1)CC2)[C@H]1CC[C@H](C(=O)O)CC1` (stereo partly drawn) [Compound 86, (1R,4r)-4-((1R)-1-(((6R)-4-(((1R)-2-(2-azabicyclo[2.2.1]heptan-2-yl)-1-(4-fluorophenyl)ethyl)amino)-6-phenyl-5,6,7,8-tetrahydroquinazolin-2-yl)amino)propyl)cyclohexane-1-carboxylic acid], on monkey NPR1 (setting [1]), the AC50 came out at 192 nM. Moreover, the “Monkey NPR1 Amax (% of ANP)” value at monkey NPR1 (monkey NPR1 CHO-K1 cells) is given as 92.318 % of ANP. At human NPR1, the activity was half-maximal at 286 nM (AC50) and the “Human NPR1 Amax (% of ANP)” value is reported as 101.050 % of ANP.

Consider `CC[C@H]([C@H]1CC[C@H](C(=O)O)CC1)N(C)c1nc2c(c(N[C@@H](CN3CCC[C@H](C)C3)c3ccc(=O)n(C)c3)n1)C[C@H](c1cccc(F)c1)CC2` [Compound 53, (1R,4r)-4-((R)-1-(((R)-6-(3-fluorophenyl)-4-(((R)-1-(1-methyl-6-oxo-1,6-dihydropyridin-3-yl)-2-((S)-3-methylpiperidin-1-yl)ethyl)amino)-5,6,7,8-tetrahydroquinazolin-2-yl)(methyl)amino)propyl)cyclohexane-1-carboxylic acid], for which the AC50 is 101 nM at monkey NPR1 (setting [1]) and 190 nM at human NPR1. Further, at monkey NPR1 (monkey NPR1 CHO-K1 cells), the “Monkey NPR1 Amax (% of ANP)” value was 101.261 % of ANP. The “Human NPR1 Amax (% of ANP)” value on human NPR1 is given as 101.185 % of ANP.

Turning to `CC[C@H]([C@H]1CC[C@H](C(=O)O)CC1)N(C)c1nc2c(c(N[C@@H](CN3CCC[C@H](C)C3)c3cnn(C)c3)n1)CN(c1cccc(F)c1)CC2` [Compound 124, (1R,4r)-4-((R)-1-((6-(3-fluorophenyl)-4-(((R)-1-(1-methyl-1H-pyrazol-4-yl)-2-((S)-3-methylpiperidin-1-yl)ethyl)amino)-5,6,7,8-tetrahydropyrido[4,3-d]pyrimidin-2-yl)(methyl)amino)propyl)cyclohexane-1-carboxylic acid], at monkey NPR1 (setting [1]), the AC50 was found to be 406 nM. Further, the “Monkey NPR1 Amax (% of ANP)” value at monkey NPR1 (monkey NPR1 CHO-K1 cells) is listed as 101.428 % of ANP. Also, on human NPR1, the activity was half-maximal at 617 nM (AC50) and the “Human NPR1 Amax (% of ANP)” value is given as 106.069 % of ANP.

`CC[C@H]([C@H]1CC[C@H](C(=O)O)CC1)N(C)c1nc2c(c(N[C@@H](CN3CCCC4(CCOC4)C3)c3cnn(CC)c3)n1)C[C@H](c1ccccc1)CC2` (stereo partly drawn) [Compound 162, (1R,4r)-4-((1R)-1-(((6R)-4-(((1R)-1-(1-ethyl-1H-pyrazol-4-yl)-2-(2-oxa-7-azaspiro[4.5]decan-7-yl)ethyl)amino)-6-phenyl-5,6,7,8-tetrahydroquinazolin-2-yl)(methyl)amino)propyl)cyclohexane-1-carboxylic acid]: the AC50 came to 1310 nM at monkey NPR1 (setting [1]) and 1700 nM on human NPR1. In addition, at monkey NPR1 (monkey NPR1 CHO-K1 cells), the “Monkey NPR1 Amax (% of ANP)” value is on record as 89.971 % of ANP. Further, the “Human NPR1 Amax (% of ANP)” value on human NPR1 is 83.721 % of ANP.

On to `CC[C@H]([C@H]1CC[C@H](CC(=O)O)CC1)N(C)c1nc2c(c(N[C@@H](CN3CCC[C@H](C)C3)c3cnn(C)c3)n1)C[C@H](c1ccccc1)CC2` [Compound 67, 2-((1R,4r)-4-((R)-1-(methyl((R)-4-(((R)-1-(1-methyl-1H-pyrazol-4-yl)-2-((S)-3-methylpiperidin-1-yl)ethyl)amino)-6-phenyl-5,6,7,8-tetrahydroquinazolin-2-yl)amino)propyl)cyclohexyl)acetic acid], for which the AC50 at monkey NPR1 (setting [1]) turned out to be 155 nM. In addition, on monkey NPR1 (monkey NPR1 CHO-K1 cells), the “Monkey NPR1 Amax (% of ANP)” value is reported as 98.233 % of ANP. Moreover, at human NPR1, the AC50 stood at 229 nM and the “Human NPR1 Amax (% of ANP)” value is recorded as 95.228 % of ANP.

With `CC[C@@H](Nc1nc2c(c(N[C@@H](CN3CCCC[C@H]3C)c3cnn(C)c3)n1)C[C@H](c1ccccc1)CC2)[C@H]1CC[C@H](C(=O)O)CC1` [Compound 90, (1R,4r)-4-((R)-1-(((R)-4-(((R)-1-(1-methyl-1H-pyrazol-4-yl)-2-((R)-2-methylpiperidin-1-yl)ethyl)amino)-6-phenyl-5,6,7,8-tetrahydroquinazolin-2-yl)amino)propyl)cyclohexane-1-carboxylic acid], the AC50 on monkey NPR1 (setting [1]) was 224 nM. The “Monkey NPR1 Amax (% of ANP)” value on monkey NPR1 (monkey NPR1 CHO-K1 cells) is listed as 106.347 % of ANP. Further, at human NPR1, half-maximal activity (AC50) was put at 313 nM and the “Human NPR1 Amax (% of ANP)” value is recorded as 103.308 % of ANP.

With `CC[C@H]([C@H]1CC[C@H](C(=O)O)CC1)N(C)c1nc2c(c(N[C@@H](CN3CCCC(F)C3)c3cnn(C)c3)n1)C[C@H](c1ccccc1)CC2` (stereo partly drawn) [Compound 156, (1R,4r)-4-((1R)-1-(((6R)-4-(((1R)-2-(3-fluoropiperidin-1-yl)-1-(1-methyl-1H-pyrazol-4-yl)ethyl)amino)-6-phenyl-5,6,7,8-tetrahydroquinazolin-2-yl)(methyl)amino)propyl)cyclohexane-1-carboxylic acid], on monkey NPR1 (setting [1]), the AC50 is 1160 nM. For the same compound, the “Monkey NPR1 Amax (% of ANP)” value at monkey NPR1 (monkey NPR1 CHO-K1 cells) was 105.900 % of ANP. Moreover, at human NPR1, the AC50 was 1300 nM and the “Human NPR1 Amax (% of ANP)” value is on record as 93.013 % of ANP.

Consider `CC[C@H]([C@H]1CC[C@H](C(=O)O)CC1)N(C)c1nc2c(c(N[C@@H](CN3CCCC(F)(F)CC3)c3cnn(C)c3)n1)C[C@H](c1ccccc1)CC2` [Compound 150, (1R,4r)-4-((R)-1-(((R)-4-(((R)-2-(4,4-difluoroazepan-1-yl)-1-(1-methyl-1H-pyrazol-4-yl)ethyl)amino)-6-phenyl-5,6,7,8-tetrahydroquinazolin-2-yl)(methyl)amino)propyl)cyclohexane-1-carboxylic acid], for which the AC50 on monkey NPR1 (setting [1]) came to 1040 nM; on human NPR1 it was 1160 nM. For the same compound, the “Monkey NPR1 Amax (% of ANP)” value at monkey NPR1 (monkey NPR1 CHO-K1 cells) is 156.200 % of ANP. The “Human NPR1 Amax (% of ANP)” value at human NPR1 is 130.487 % of ANP.

With `CC[C@@H](Nc1nc2c(c(N[C@@H](CN3CCC[C@H](C)C3)c3cnn(C(C)C)c3)n1)C[C@H](c1ccccc1)CC2)[C@H]1CC[C@H](C(=O)O)CC1` [Compound 22, (1R,4r)-4-((R)-1-(((R)-4-(((R)-1-(1-isopropyl-1H-pyrazol-4-yl)-2-((S)-3-methylpiperidin-1-yl)ethyl)amino)-6-phenyl-5,6,7,8-tetrahydroquinazolin-2-yl)amino)propyl)cyclohexane-1-carboxylic acid], at monkey NPR1 (setting [1]), the AC50 amounted to 74 nM. Moreover, the “Monkey NPR1 Amax (% of ANP)” value at monkey NPR1 (monkey NPR1 CHO-K1 cells) is on record as 103.742 % of ANP. Moreover, at human NPR1, the half-maximal activity concentration (AC50) amounted to 114 nM and the “Human NPR1 Amax (% of ANP)” value is on record as 102.676 % of ANP.
